# Source: PMC9221108 (2022)
# Legend:
# [1] = test system: OTAapt31 (DNA, aptamer) GATCGGGTGTGGGTGGCGTAAAGGGAGCATC; assay: fluorescence quenching titration; details: 6.25 mM Ca2+; 10 mM Tris-HCl pH 8.4, 0.2% Tween 20, 0.3x SGI, 20 nM aptamer, room temperature; apparent
# [2] = test system: OTAapt31-FAM (DNA, aptamer) GATCGGGTGTGGGTGGCGTAAAGGGAGCATC; assay: FAM fluorescence quenching titration; details: 6.25 mM Ca2+; 10 mM Tris-HCl pH 8.4, room temperature; apparent
# [3] = test system: OTAapt36 (DNA, aptamer) GATCGGGTGTGGGTGGCGTAAAGGGAGCATCGGACA; assay: fluorescence quenching titration; details: 6.25 mM Ca2+; 10 mM Tris-HCl pH 8.4, 0.2% Tween 20, 0.3x SGI, 20 nM aptamer, room temperature; apparent
# [4] = test system: G31C (DNA, aptamer) GGATCGGGTGTGGGTGGCGTAAAGGGAGCATCC; assay: fluorescence quenching titration; details: 6.25 mM Ca2+; 10 mM Tris-HCl pH 8.4, 0.2% Tween 20, 0.3x SGI, 20 nM aptamer, room temperature; apparent
# [5] = test system: OTAapt31-FAM (DNA, aptamer) GATCGGGTGTGGGTGGCGTAAAGGGAGCATC; assay: FAM fluorescence quenching on CV addition; details: 6.25 mM Ca2+; 10 mM Tris-HCl pH 8.4; OTA-folded antiparallel G4
# [6] = test system: OTAapt31 (DNA, aptamer) GATCGGGTGTGGGTGGCGTAAAGGGAGCATC; assay: SGI fluorescence quenching on CV addition; details: 6.25 mM Ca2+; 10 mM Tris-HCl pH 8.4, 0.3x SGI; OTA-folded antiparallel G4
# [7] = test system: OTAapt31 (DNA, aptamer) GATCGGGTGTGGGTGGCGTAAAGGGAGCATC; assay: SGI fluorescence enhancement; details: 6.25 mM Ca2+; 10 mM Tris-HCl pH 8.4, 0.3x SGI, 20 nM aptamer; no OTA; terminal duplex stem
# [8] = test system: OTAapt31 (DNA, aptamer) GATCGGGTGTGGGTGGCGTAAAGGGAGCATC; assay: SGI fluorescence quenching; details: 6.25 mM Ca2+; 10 mM Tris-HCl pH 8.4, 0.3x SGI, 20 nM aptamer; tested at 62.5 nM
# [9] = test system: 5AG4 (DNA, G4) AAAAAGGGTGGGTGGGTGGGTTTTT; assay: SGI fluorescence quenching on hemin addition; details: K+ (varied); 10 mM Tris-HCl pH 8.4, 0.2% Tween 20, 0.3x SGI; K+-folded parallel G4
# [10] = test system: 5AG4-FAM (DNA, G4) AAAAAGGGTGGGTGGGTGGGTTTTT; assay: FAM fluorescence quenching on hemin addition; details: K+ (varied); 10 mM Tris-HCl pH 8.4; K+-folded parallel G4
smiles,measurement,setting,value
C[C@@H]1Cc2c(Cl)cc(C(=O)N[C@@H](Cc3ccccc3)C(=O)O)c(O)c2C(=O)O1,IC50,[1],20.6 nM
same,IC50,[2],19.8 nM
same,IC50,[3],55.7 nM
same,IC50,[4],17.8 nM
CN(C)c1ccc(C(=C2C=CC(=[N+](C)C)C=C2)c2ccc(N(C)C)cc2)cc1,binding,[5],yes
same,binding,[6],yes
CCCN(CCCN(C)C)c1cc(C=C2Sc3ccccc3N2C)c2ccccc2[n+]1-c1ccccc1,binding,[7],yes
C[C@@H]1Cc2ccc(C(=O)N[C@@H](Cc3ccccc3)C(=O)O)c(O)c2C(=O)O1,binding,[8],no
O=C1C=C2C(=CCOC2O)O1 (stereo not shown),binding,[8],no
C=CC1=C(C)C2=Cc3c(C=C)c(C)c4[n]3[Fe]([Cl])[n]3c(c(C)c(CCC(=O)O)c3=CC3=NC(=C4)C(C)=C3CCC(=O)O)=CC1=N2,binding,[9],yes
same,binding,[10],yes
CCCC[C@@H](C)[C@@H](OC(=O)C[C@@H](CC(=O)O)C(=O)O)[C@H](C[C@@H](C)C[C@H](O)CCCC[C@@H](O)C[C@H](O)[C@H](C)N)OC(=O)C[C@@H](CC(=O)O)C(=O)O,binding,[8],no
C[C@H]1CCCC(=O)CCC/C=C/c2cc(O)cc(O)c2C(=O)O1,binding,[8],no
